± gives the expanded uncertainty stated by the source.
Tests used:
[1] = refractive index (Na D-line) (dimensionless); details: 298.15 K; 101.33 kPa; Liquid; Standard Abbe refractometry
[2] = Liquid; for mass density: 298.15 K, 101.33 kPa; for Normal boiling temperature: Ebulliometric method (Recirculating still)

SMILES | refractive index [1] | mass density [2] [kg/m3] | Normal boiling temperature [2] [°C]
CCC(C)O (stereo unspecified) [butan-2-ol] | 1.3951 ± 0.0005 | 802.35 ± 0.79 | 99.41 ± 0.3
CCC(C)=O [butanone] | 1.3761 ± 0.0005 | 799.62 ± 0.46 | 79.53 ± 0.3

— the NIST ThermoML archive (doi:10.1021/je1004643)
